Test results reported in patent US20150080337A1, “N-CYCLOALKYL-N-[(TRISUBSTITUTEDSILYLPHENYL)METHYLENE]-(THIO)CARBOXAMIDE DERIVATIVES” (BAYER CROPSCIENCE, priority 2012, published 2015).
Each block holds one compound with its values, some of them ahead of it.

Columns and labels:
[1] = log P by HPLC on reversed-phase column (C 18), EEC Directive 79/831 Annex V.A8; assay type: physicochemical; conditions: HPLC C 18, 40° C., 0.1% aqueous formic acid and acetonitrile, gradient 10% to 90% acetonitrile
Method: In table 1, the log P values were determined in accordance with EEC Directive 79/831 Annex V.A8 by HPLC (High Performance Liquid Chromatography) on a reversed-phase column (C 18), using the method described below:
Temperature: 40° C.; Mobile phases: 0.1% aqueous formic acid and acetonitrile; linear gradient from 10% acetonitrile to 90% acetonitrile.
Calibration was carried out using unbranched alkan-2-ones (comprising 3 to 16 carbon atoms) with known log P values (determination of the log P values by the retention times using linear interpolation between two successive alkanones). lambda-max-values were determined using UV-spectra from 200 nm to 400 nm and the peak values of the chromatographic signals.
In table 2, M+H (Apcl+) and log P are defined as for table 1.

Sphaerotheca fuliginea = assay: In vivo test on Sphaerotheca fuliginea (cucurbits powdery mildew); conditions: 500 ppm of active ingredient; gherkin plants sprayed 24 hours before contamination; grading 12 days after contamination vs control plants
Method: The active ingredients tested are prepared by homogenization in a mixture of acetone/tween/DMSO and then diluted with water to obtain the desired active material concentration.
Gherkin plants (“Vert petit de Paris” variety), sown in starter cups on a 50/50 peat soil-pozzolana substrate and grown at 24° C., are treated at the Z11 cotyledon stage by spraying with the active ingredient prepared as described above. Plants, used as controls, are treated with the mixture of acetone/tween/DMSO/water not containing the active material.
After 24 hours, the plants are contaminated by spraying the cotyledons with an aqueous suspension of Sphaerotheca fuliginea spores (100 000 spores per mL). The spores are collected from infected plants. The contaminated gherkin plants are incubated at about 20° C. and at 70-80% relative humidity.
(§1) Grading (% of efficacy) is carried out 12 days after the contamination, in comparison with the control plants.
Under these conditions, good (at least 70%) to total protection is observed at a dose of 500 ppm of active ingredient with the following compounds from table A: […]

Puccinia recondita = assay: In vivo test on Puccinia recondita (brown rust); conditions: 500 ppm of active ingredient; wheat plants sprayed 24 hours before contamination; grading 12 days after contamination vs control plants
Method: (§2) The active ingredients tested are prepared by homogenization in a mixture of acetone/tween/DMSO, and then diluted with water to obtain the desired active material concentration.
(§3) Wheat plants (“Scipion” variety), sown in starter cups on a 50/50 peat soil pozzolana substrate and grown at 22° C., are treated at the 1 leaf stage (10 cm height) by spraying with the active ingredient prepared as described above. Plants, used as controls, are treated with the mixture of acetone/tween/DMSO/water not containing the active material.
(§4) After 24 hours, the plants are contaminated by spraying the leaves with an aqueous suspension of Puccinia recondita spores (100 000 spores per mL). The spores are collected from an infected plant and are suspended in water containing 2.5 mL/L of Tween 80 at 10%. The contaminated wheat plants are incubated for 24 hours at 20° C. and at 100% relative humidity, and then for 10 days at 20° C. and at 70-80% relative humidity.
as §1
Under these conditions, good (at least 70%) to excellent (at least 90%) protection is observed at a dose of 500 ppm of active ingredient with the following compounds from table C: […]

Uromyces appendiculatus = assay: In vivo preventive test on Uromyces appendiculatus (bean rust); conditions: 500 ppm of active ingredient; bean plants sprayed 24 hours before contamination; grading 11 days after contamination vs control plants
Method: as §2
Bean plants (“Saxa” variety), sown in starter cups on a 50/50 peat soil pozzolana substrate and grown at 24° C., are treated at the 2 leaf stage (9 cm height) by spraying with the active ingredient prepared as described above. Plants, used as controls, are treated with the mixture of acetone/tween/DMSO/water not containing the active material.
as §4, with “of Uromyces appendiculatus” for “of Puccinia recondita”, “spores (150” for “spores (100”, “from” for “from an”, “infected plants” for “infected plant”, “contaminated bean” for “contaminated wheat”
Grading (% of efficacy) is carried out 11 days after the contamination, in comparison with the control plants.
Under these conditions, good (at least 70%) to total protection is observed at a dose of 500 ppm of active ingredient with the following compounds from table G: […]

Septoria tritici = assay: In vivo preventive test on Septoria tritici (wheat); conditions: 500 ppm of active ingredient; wheat plants sprayed 24 hours before contamination; grading 24 days after contamination vs control plants
Method: as §2, §3
After 24 hours, the plants are contaminated by spraying the leaves with an aqueous suspension of cryopreserved Septoria tritici spores (500 000 spores per mL). The contaminated wheat plants are incubated for 72 hours at 18° C. and at 100% relative humidity, and then for 21 days at 90% relative humidity.
Grading (% of efficacy) is carried out 24 days after the contamination, in comparison with the control plants.
Under these conditions, good (at least 70%) to total protection is observed at a dose of 500 ppm of active ingredient with the following compounds from table F: […]

[2] = Table 1, compounds of formula (I)
[3] = Table 2, compounds of formula (II)

SMILES: Cc1nn(C)c(F)c1C(=O)N(Cc1ccccc1[Si](C)(C)c1ccccc1)C1CC1 [I.1, N-cyclopropyl-N-{2-[dimethyl(phenyl)silyl]benzyl}-5-fluoro-1,3-dimethyl-1H-pyrazole-4-carboxamide]
chromatographic logP [1, 2]: 4.24
Efficacy (Sphaerotheca fuliginea): 100%
Efficacy (Puccinia recondita): 92%
Efficacy (Uromyces appendiculatus): 93%
Efficacy (Septoria tritici): 96%

SMILES: Cn1nc(C(F)F)c(C(=O)N(Cc2ccccc2[Si](C)(C)c2ccc(-c3ccccc3)cc2)C2CC2)c1F [I.13]
logP [1, 2]: 5.71

SMILES: Cn1cc(C(=O)N(Cc2ccccc2[Si](C)(C)c2ccc(-c3ccccc3)cc2)C2CC2)c(C(F)F)n1 [I.14]
logP [1, 2]: 5.36

SMILES: Cc1cc(C(=O)N(Cc2ccccc2[Si](C)(C)c2ccc(-c3ccccc3)cc2)C2CC2)c(C)o1 [I.15]
logP [1, 2]: 6.39

SMILES: C[Si](C)(c1ccc(-c2ccccc2)cc1)c1ccccc1CN(C(=O)c1ccsc1I)C1CC1 [I.16]
logP [1, 2]: 6.39

SMILES: Cc1nc(C(F)F)c(C(=O)N(Cc2ccccc2[Si](C)(C)c2ccc(-c3ccccc3)cc2)C2CC2)s1 [I.17]
logP [1, 2]: 5.93

SMILES: Cn1cc(C(=O)N(Cc2ccccc2[Si](C)(C)c2ccc(-c3ccccc3)cc2)C2CC2)c(C(F)F)c1 [I.18]
logP [1, 2]: 5.68

SMILES: Cn1nc(C(F)F)c(C(=O)N(Cc2ccccc2[Si](C)(C)c2cccs2)C2CC2)c1Cl [I.32]
logP [1, 2]: 4.72
Efficacy (Uromyces appendiculatus): 71%

SMILES: Cn1nc(C(F)F)c(C(=O)N(Cc2ccccc2[Si](C)(C)c2cccs2)C2CC2)c1F [I.33]
logP [1, 2]: 4.61
Efficacy (Sphaerotheca fuliginea): 100%
Efficacy (Uromyces appendiculatus): 100%
Efficacy (Septoria tritici): 100%

SMILES: C[Si](C)(c1cccs1)c1ccccc1CN(C(=O)c1ccsc1I)C1CC1 [I.34]
logP [1, 2]: 5.28

SMILES: Cc1nc(C(F)F)c(C(=O)N(Cc2ccccc2[Si](C)(C)c2cccs2)C2CC2)s1 [I.36]
logP [1, 2]: 4.74

SMILES: Cn1cc(C(=O)N(Cc2ccccc2[Si](C)(C)c2cccs2)C2CC2)c(C(F)F)c1 [I.37]
logP [1, 2]: 4.59

SMILES: COc1ccc([Si](C)(C)c2ccccc2CN(C(=O)c2c(C(F)F)nn(C)c2F)C2CC2)cn1 [I.38]
logP [1, 2]: 4.13

SMILES: COc1ccc([Si](C)(C)c2ccccc2CN(C(=O)c2c(C(F)F)nn(C)c2Cl)C2CC2)cn1 [I.39]
logP [1, 2]: 4.25

SMILES: C[Si](C)(c1ccccc1)c1ccccc1CNC1CC1 [II.1, N-{2-[dimethyl(phenyl)silyl]benzyl}cyclopropanamine]
chromatographic logP [1, 3]: 1.95

SMILES: C[Si](C)(c1ccc(Cl)cc1)c1ccccc1CNC1CC1 [II.2, N-{2-[(4-chlorophenyl)(dimethyl)silyl]benzyl}cyclopropanamine]
chromatographic logP [1, 3]: 2.07

SMILES: C[Si](C)(c1ccc(-c2ccccc2)cc1)c1ccccc1CNC1CC1 [II.3, N-{2-[biphenyl-4-yl(dimethyl)silyl]benzyl}cyclopropanamine]
chromatographic logP [1, 3]: 2.39

SMILES: C[Si](C)(c1ccc(Oc2ccccc2)cc1)c1ccccc1CNC1CC1 [II.4, N-{2-[dimethyl(4-phenoxyphenyl)silyl]benzyl}cyclopropanamine]
chromatographic logP [1, 3]: 2.42

SMILES: C[Si](C)(c1ccccc1CNC1CC1)c1cccc2ccccc12 [II.5, N-{2-[dimethyl(1-naphthyl)silyl]benzyl}cyclopropanamine]
chromatographic logP [1, 3]: 2.11

SMILES: C[Si](C)(c1cccs1)c1ccccc1CNC1CC1 [II.6, N-{2-[dimethyl(2-thienyl)silyl]benzyl}cyclopropanamine]
chromatographic logP [1, 3]: 1.76

SMILES: CC1CC1NCc1ccccc1[Si](C)(C)c1ccccc1 (stereo not shown) [II.7]
logP [1, 3]: 2.70

SMILES: COc1ccc([Si](C)(C)c2ccccc2CNC2CC2)cn1 [II.8, N-{2-[(6-methoxypyridin-3-yl)(dimethyl)silyl]benzyl}cyclopropanamine]
chromatographic logP [1, 3]: 1.86

Now from value to compound, other results behind:

logP [1, 2]: 4.81
SMILES: CCc1nn(C)c(F)c1C(=O)N(Cc1ccccc1[Si](C)(C)c1ccccc1)C1CC1 [I.2]
Efficacy (Sphaerotheca fuliginea): 100%
Efficacy (Puccinia recondita): 83%

logP [1, 2]: 4.41
SMILES: Cn1cc(C(=O)N(Cc2ccccc2[Si](C)(C)c2ccccc2)C2CC2)c(C(F)F)n1 [I.3]
Efficacy (Sphaerotheca fuliginea): 93%
Efficacy (Puccinia recondita): 83%
Efficacy (Uromyces appendiculatus): 93%
Efficacy (Septoria tritici): 80%

logP [1, 2]: 4.78
SMILES: Cn1nc(C(F)F)c(C(=O)N(Cc2ccccc2[Si](C)(C)c2ccccc2)C2CC2)c1F [I.4]
Efficacy (Sphaerotheca fuliginea): 100%
Efficacy (Puccinia recondita): 92%
Efficacy (Uromyces appendiculatus): 100%
Efficacy (Septoria tritici): 100%

logP [1, 2]: 4.88
SMILES: Cn1nc(C(F)F)c(C(=O)N(Cc2ccccc2[Si](C)(C)c2ccccc2)C2CC2)c1Cl [I.5]
Efficacy (Sphaerotheca fuliginea): 79%
Efficacy (Puccinia recondita): 83%

logP [1, 2]: 5.19
SMILES: Cn1nc(C(F)F)c(C(=O)N(Cc2ccccc2[Si](C)(C)c2ccc(Cl)cc2)C2CC2)c1F [I.6]
Efficacy (Sphaerotheca fuliginea): 100%
Efficacy (Puccinia recondita): 94%
Efficacy (Uromyces appendiculatus): 100%

logP [1, 2]: 4.81
SMILES: Cn1cc(C(=O)N(Cc2ccccc2[Si](C)(C)c2ccc(Cl)cc2)C2CC2)c(C(F)F)n1 [I.7]
Efficacy (Sphaerotheca fuliginea): 70%
Efficacy (Puccinia recondita): 78%
Efficacy (Uromyces appendiculatus): 86%

logP [1, 2]: 5.78
SMILES: Cc1cc(C(=O)N(Cc2ccccc2[Si](C)(C)c2ccc(Cl)cc2)C2CC2)c(C)o1 [I.9]

logP [1, 2]: 5.19
SMILES: Cn1cc(C(=O)N(Cc2ccccc2[Si](C)(C)c2ccc(Cl)cc2)C2CC2)c(C(F)F)c1 [I.10]

logP [1, 2]: 5.81
SMILES: C[Si](C)(c1ccc(Cl)cc1)c1ccccc1CN(C(=O)c1ccsc1I)C1CC1 [I.11]

logP [1, 2]: 5.31
SMILES: Cc1nc(C(F)F)c(C(=O)N(Cc2ccccc2[Si](C)(C)c2ccc(Cl)cc2)C2CC2)s1 [I.12]

logP [1, 2]: 6.33
SMILES: Cc1cc(C(=O)N(Cc2ccccc2[Si](C)(C)c2ccc(Oc3ccccc3)cc2)C2CC2)c(C)o1 [I.21]

logP [1, 2]: 6.36
SMILES: C[Si](C)(c1ccc(Oc2ccccc2)cc1)c1ccccc1CN(C(=O)c1ccsc1I)C1CC1 [I.22]

logP [1, 2]: 5.62
SMILES: Cn1cc(C(=O)N(Cc2ccccc2[Si](C)(C)c2ccc(Oc3ccccc3)cc2)C2CC2)c(C(F)F)c1 [I.23]

logP [1, 2]: 5.81
SMILES: Cc1nc(C(F)F)c(C(=O)N(Cc2ccccc2[Si](C)(C)c2ccc(Oc3ccccc3)cc2)C2CC2)s1 [I.24]

logP [1, 2]: 4.83
SMILES: Cn1cc(C(=O)N(Cc2ccccc2[Si](C)(C)c2cccc3ccccc23)C2CC2)c(C(F)F)n1 [I.26]

logP [1, 2]: 5.87
SMILES: Cc1cc(C(=O)N(Cc2ccccc2[Si](C)(C)c2cccc3ccccc23)C2CC2)c(C)o1 [I.27]

logP [1, 2]: 5.19
SMILES: Cn1cc(C(=O)N(Cc2ccccc2[Si](C)(C)c2cccc3ccccc23)C2CC2)c(C(F)F)c1 [I.28]

logP [1, 2]: 5.31
SMILES: Cc1nc(C(F)F)c(C(=O)N(Cc2ccccc2[Si](C)(C)c2cccc3ccccc23)C2CC2)s1 [I.30]

logP [1, 2]: 5.19
SMILES: Cc1cc(C(=O)N(Cc2ccccc2[Si](C)(C)c2cccs2)C2CC2)c(C)o1 [I.35]
